Test results reported in ChEMBL document CHEMBL1201862, “PubChem BioAssay data set” (2004).
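Cells were grown in 96-well plates and exposed to each compound for 48 hours at five concentrations; endpoints were interpolated linearly between bracketing concentrations, or set to the highest concentration if not reached. GI50 marks 50% less growth.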 The source made the active and inactive calls. Cut-off read from the data, not from the text of the source: active = GI50 up to about 1.1 µM and inactive = higher.

Tests used:
Test in all cases: DTP human tumour cell line panel, 48 h
[1] = test system: SNB-19
[2] = test system: KM12
[3] = test system: SNB-75
[4] = test system: NCI-H226
[5] = test system: COLO 205
[6] = test system: SK-MEL-28
[7] = test system: HCT-116
[8] = test system: HCC 2998
[9] = test system: SK-MEL-2
[10] = test system: OVCAR-5
[11] = test system: SF-295
[12] = test system: EKVX
[13] = test system: HCT-15
[14] = test system: PC-3
[15] = test system: UACC-62
[16] = test system: ACHN
[17] = test system: SN12C
[18] = test system: MOLT-4
[19] = test system: NCI/ADR-RES
[20] = test system: NCI-H460
[21] = test system: K562
[22] = test system: BT-549
[23] = test system: DU-145
[24] = test system: OVCAR-4
[25] = test system: UACC-257
[26] = test system: NCI-H23
[27] = test system: SK-OV-3
[28] = test system: NCI-H522
[29] = test system: CAKI-1
[30] = test system: RXF 393
[31] = test system: MDA-MB-231
[32] = test system: A498
[33] = test system: A549
[34] = test system: HT-29
[35] = test system: MCF7
[36] = test system: MDA-MB-435
[37] = test system: 786-0
[38] = test system: UO-31
[39] = test system: RPMI-8226
[40] = test system: U-251
[41] = test system: TK-10
[42] = test system: SF-268
[43] = test system: MDA-N
[44] = test system: M14
[45] = test system: Malme-3M
[46] = test system: HOP-92
[47] = test system: SW-620
[48] = test system: SK-MEL-5
[49] = test system: Hs-578T
[50] = test system: CCRF-CEM
[51] = test system: HOP-62
[52] = test system: T47D
[53] = test system: LOX IMVI
[54] = test system: OVCAR-8
[55] = test system: OVCAR-3
[56] = test system: SF-539
[57] = test system: HL-60
[58] = test system: IGROV-1

Oc1c(OCc2nnc(CCCCCCCCc3nnc(COc4ccc5ccccc5c4O)o3)o2)ccc2ccccc12
GI50 [1]: 39.9 µM (inactive)
GI50 [2]: > 100 µM (inactive)
GI50 [3]: 62.7 µM (inactive)
GI50 [4]: > 100 µM (inactive)
GI50 [5]: > 100 µM (inactive)
GI50 [6]: > 100 µM (inactive)
GI50 [7]: 0.47 µM (active)
GI50 [8]: > 100 µM (inactive)
GI50 [9]: > 100 µM (inactive)
GI50 [10]: > 100 µM (inactive)
GI50 [11]: > 100 µM (inactive)
GI50 [12]: > 100 µM (inactive)
GI50 [13]: > 100 µM
GI50 [14]: > 100 µM (inactive)
GI50 [15]: > 100 µM (inactive)
GI50 [16]: > 100 µM (inactive)
GI50 [17]: 83.9 µM (inactive)
GI50 [18]: 19.7 µM (inactive)
GI50 [19]: 64 µM (inactive)
GI50 [20]: > 100 µM (inactive)
GI50 [21]: 91.6 µM (inactive)
GI50 [22]: > 100 µM (inactive)
GI50 [23]: > 100 µM (inactive)
GI50 [24]: > 100 µM (inactive)
GI50 [25]: > 100 µM (inactive)
GI50 [26]: 61.2 µM (inactive)
GI50 [27]: 44.5 µM (inactive)
GI50 [28]: > 100 µM (inactive)
GI50 [29]: 29.8 µM (inactive)
GI50 [30]: > 100 µM (inactive)
GI50 [31]: 91.8 µM (inactive)
GI50 [32]: > 100 µM (inactive)
GI50 [33]: 57.3 µM (inactive)
GI50 [34]: > 100 µM (inactive)
GI50 [35]: > 100 µM (inactive)
GI50 [36]: > 100 µM (inactive)
GI50 [37]: 16.6 µM (inactive)
GI50 [38]: 59.6 µM (inactive)
GI50 [39]: > 100 µM (inactive)
GI50 [40]: 41.7 µM (inactive)
GI50 [41]: > 100 µM (inactive)
GI50 [42]: 85.5 µM (inactive)
GI50 [43]: > 100 µM (inactive)
GI50 [44]: > 100 µM (inactive)
GI50 [45]: > 100 µM (inactive)
GI50 [46]: 43 µM (inactive)
GI50 [47]: > 100 µM (inactive)
GI50 [48]: > 100 µM (inactive)

COC(=O)c1ccccc1CC1Cc2c(C)ccc(C)c2C1=O (stereo not given)
GI50 [1]: 37.9 µM (inactive)
GI50 [2]: 23.6 µM (inactive)
GI50 [3]: 36.1 µM (inactive)
GI50 [4]: 38.9 µM (inactive)
GI50 [5]: 19.1 µM (inactive)
GI50 [6]: 48 µM (inactive)
GI50 [7]: 16.5 µM (inactive)
GI50 [8]: 36.9 µM (inactive)
GI50 [9]: 17.9 µM (inactive)
GI50 [10]: 49.1 µM (inactive)
GI50 [11]: 28.7 µM (inactive)
GI50 [49]: 33.3 µM (inactive)
GI50 [12]: 13.5 µM (inactive)
GI50 [13]: 24.6 µM
GI50 [14]: 34.8 µM (inactive)
GI50 [50]: 22.2 µM (inactive)
GI50 [51]: 60.1 µM (inactive)
GI50 [15]: 28.7 µM (inactive)
GI50 [52]: 21.4 µM (inactive)
GI50 [16]: 33.8 µM (inactive)
GI50 [17]: 45.3 µM (inactive)
GI50 [18]: 19.6 µM (inactive)
GI50 [53]: 16.5 µM (inactive)
GI50 [19]: 18.3 µM (inactive)
GI50 [20]: 30.2 µM (inactive)
GI50 [21]: 33.5 µM (inactive)
GI50 [22]: 34.5 µM (inactive)
GI50 [23]: 50.5 µM (inactive)
GI50 [24]: 25.9 µM (inactive)
GI50 [54]: 42.1 µM (inactive)
GI50 [25]: 16.2 µM (inactive)
GI50 [26]: 15.4 µM (inactive)
GI50 [27]: 38.6 µM (inactive)
GI50 [28]: 21.6 µM (inactive)
GI50 [29]: 34.5 µM (inactive)
GI50 [30]: 21.4 µM (inactive)
GI50 [31]: 16 µM (inactive)
GI50 [55]: 34.4 µM (inactive)
GI50 [32]: 25.8 µM (inactive)
GI50 [33]: 40.2 µM (inactive)
GI50 [34]: 14.9 µM (inactive)
GI50 [35]: 11.2 µM (inactive)
GI50 [36]: 23.1 µM (inactive)
GI50 [37]: 36.3 µM (inactive)
GI50 [38]: 25.8 µM (inactive)
GI50 [40]: 33.8 µM (inactive)
GI50 [56]: 51.2 µM (inactive)
GI50 [57]: 23.3 µM (inactive)
GI50 [41]: 20.5 µM (inactive)
GI50 [42]: 29.6 µM (inactive)
GI50 [44]: 34.8 µM (inactive)
GI50 [45]: 22.4 µM (inactive)
GI50 [46]: 17.2 µM (inactive)
GI50 [47]: 35.6 µM (inactive)
GI50 [48]: 17.8 µM (inactive)
GI50 [58]: 32 µM (inactive)

CC(C)[C@H](C)/C=C/[C@@H](C)C1CC[C@H]2[C@@]34C=C[C@]5(C[C@@H](O)CC[C@]5(C)[C@H]3CC[C@]12C)OO4 (stereo not given in full)
GI50 [1]: 27.9 µM (inactive)
GI50 [2]: 31 µM (inactive)
GI50 [3]: 30.3 µM (inactive)
GI50 [4]: 22.2 µM (inactive)
GI50 [5]: 31 µM (inactive)
GI50 [6]: 34 µM (inactive)
GI50 [7]: 19.3 µM (inactive)
GI50 [8]: 21.9 µM (inactive)
GI50 [9]: 26.7 µM (inactive)
GI50 [10]: > 100 µM (inactive)
GI50 [11]: 32.7 µM (inactive)
GI50 [12]: 39.3 µM (inactive)
GI50 [13]: 32.8 µM
GI50 [51]: > 100 µM (inactive)
GI50 [15]: 17.1 µM (inactive)
GI50 [52]: 20.8 µM (inactive)
GI50 [16]: 37.4 µM (inactive)
GI50 [17]: 28.6 µM (inactive)
GI50 [18]: 28.6 µM (inactive)
GI50 [53]: 17.7 µM (inactive)
GI50 [19]: 19.1 µM (inactive)
GI50 [20]: 31.8 µM (inactive)
GI50 [22]: 26.9 µM (inactive)
GI50 [23]: 23.1 µM (inactive)
GI50 [24]: 40.1 µM (inactive)
GI50 [54]: 20.8 µM (inactive)
GI50 [25]: > 100 µM (inactive)
GI50 [26]: 27.3 µM (inactive)
GI50 [27]: 54.8 µM (inactive)
GI50 [29]: 22.5 µM (inactive)
GI50 [30]: 44.5 µM (inactive)
GI50 [31]: 25.5 µM (inactive)
GI50 [55]: 89.5 µM (inactive)
GI50 [32]: 25.8 µM (inactive)
GI50 [33]: 42.7 µM (inactive)
GI50 [34]: 23.3 µM (inactive)
GI50 [35]: 31.9 µM (inactive)
GI50 [36]: 29.6 µM (inactive)
GI50 [37]: 20.4 µM (inactive)
GI50 [38]: 37.3 µM (inactive)
GI50 [40]: 24.3 µM (inactive)
GI50 [56]: 29.6 µM (inactive)
GI50 [57]: 17.2 µM (inactive)
GI50 [41]: 42 µM (inactive)
GI50 [42]: 29.7 µM (inactive)
GI50 [43]: 35.1 µM (inactive)
GI50 [44]: 40.7 µM (inactive)
GI50 [46]: 32.4 µM (inactive)
GI50 [47]: 27.1 µM (inactive)
GI50 [48]: 23.6 µM (inactive)
GI50 [58]: 29 µM (inactive)
